Results reported in patent US20260226006A1, “INDOLE COMPOUND, PREPARATION METHOD THEREFOR AND USE THEREOF” (SUZHOU MERNA THERAPEUTICS CO. LTD, priority 2023, published 2026).

Tests used:
[1] = test system: NAP1L2 mRNA in HaCat cells; assay: NAP1L2 mRNA expression in HaCat cells by RT-PCR (Example 16); format: cell-based, human; conditions: HaCat keratinocytes, 24 hours
Experimental: 1*10^8 HaCat cells were seeded in culture dishes, into which a recombinant protein of m6A methylase METTL3 (Abcam, Cat. #ab271611) and a recombinant protein of m6A demethylase FTO (Abcam, Cat. #ab271525) were added, or METTL3 siRNA (sh-METTL3, GeneChem) and FTO siRNA (sh-FTO, GeneChem) were transfected, respectively. The cells were placed in an incubator containing 5% carbon dioxide for culture at 37° C. for 24 hours, washed with PBS, and then collected by high-speed centrifugation. Total RNA was extracted using a Trizol reagent (Sigma Aldrich). 1 μg of RNA was reverse-transcribed into cDNA using a cDNA reverse transcription kit (Transgene Biotech, Cat. #AT311-03). 1.25 μL of a primer (Beyotime, Cat. #QH18721S), 10 μL of an iTag Universal SYBR Green supermix (Bio-Rad, Cat. #172-5125), and an appropriate amount of DEPC ultrapure water were added to formulate 20 μL of a reaction solution to perform an RT-PCR reaction. Upon completion of the reaction, the reaction solution was subjected to agarose gel electrophoresis to determine the mRNA expression amount of NAP1L2.

[2] = test system: HaCat cells; assay: m6A methylation level of drug-treated HaCat keratinocytes by nanopore sequencing (Example 14); format: cell-based, human; conditions: 50 nM drug, 24 hours
Experimental: 1*10^8 HaCat cells were seeded in culture dishes, into which 50 nM drugs (including sorafenib, capecitabine, docetaxel, and osimertinib) were added, respectively. The cells were cultured in an incubator containing 5% CO2 at 37° C. for 24 hours and washed with PBS after culture media were removed. Centrifugation was performed, the supernatant was discarded, and then, 400 μL of an RLT cell lysis buffer (QIAGEN, Cat. #79216) was added. A portion of samples were selected, into which 400 μL of 70% ethanol was added. The mixture was evenly stirred and then transferred to an RNeasy mini column, and RNA was extracted using an RNeasy mini kit (QIAGEN, Cat. #74104). 2 μL of an RNA sample was selected and dissolved in 98 μL of a 10 mM Tris-HCl buffer solution, and the absorbance at 260 nm was measured using a Nanodrop (Thermo Fisher Scientific) to determine the RNA concentration.
40 μg of an RNA sample was selected for enrichment of mRNA (PolyA+RNA) using an NEBNext Poly(A) mRNA magnetic isolation module (NEB, Cat. #E7490), and then, a 3′ end of the above enriched mRNA (PolyA+RNA) molecule was ligated with reverse transcription adapter RTA using a direct RNA sequencing kit (Oxford Nanopore Technologies, Cat. #SQK-RNA002). A reverse transcription reaction was performed with the mRNA (PolyA+RNA) molecule as a template to synthesize a complementary strand, a terminal end of the reverse transcription adapter RTA was ligated with a sequencing adapter (RNA adapter) to form a final sequencing library, and quantitative detection was performed using a Qubit™ dsDNA HS assay kit (Invitrogen, Cat. #LOT2133187).
After quality inspection of the library, the prepared sequencing library was loaded onto a PromethION flow cell chip (Oxford Nanopore Technologies, Cat. #FLO-MIN106D), and placed in a PromethION sequencer (Oxford Nanopore Technologies) for sequencing by selecting a matched sequencing mode. Basecalling was performed on sequencing data through guppy, and m6A methylation analysis was performed on original fast5 data.

[3] = test system: HaCat cells; assay: m6A methylation level of human HaCat keratinocytes, EpiQuik m6A RNA methylation quantification kit (Example 20); format: cell-based; conditions: 50 nM drug alone; for fold induction at 0.05 µM: Homo sapiens, HaCat cells, 24 hours, read-out: m6A fold change relative to control group 1
Experimental: HaCat cells were cultured in a DMEM culture medium containing 10% fetal bovine serum, 100 U/mL penicillin, and 100 μg/mL streptomycin. Culture dishes were placed in an incubator containing 5% CO2 for culture at 37° C. for 24 hours. An equal volume of DMSO was added in control group 1, 50 nM sorafenib, capecitabine, docetaxel, and osimertinib were respectively added in control groups A, B, C, and D, and 400 nM test compounds or nicotinamide were respectively added in sample groups A1-17, B1-17, C1-17, and D1-17 after the addition of 50 nM corresponding compounds. The cells were continuously cultured for 24 hours, washed with PBS, and then collected by high-speed centrifugation. Total RNA was extracted using a Trizol reagent (Sigma Aldrich), and RNA m6A methylation of a sample was quantitatively detected using an EpiQuik m6A RNA methylation quantification kit. The concentrations of positive control samples for a standard curve were 0.01 ng/μl, 0.02 ng/μl, 0.05 ng/μl, 0.1 ng/μl, 0.2 ng/μl, and 0.5 ng/μl. The absorbance at 450 nm was read using a microplate reader (Tecan GENios). A quantitative calculation formula for m6A is as follows:
m6A (ng)=(absorbance of sample well−absorbance of background well)/slope of standard curve m6A (%)=m6A (ng)/RNA amount of sample (ng)*100%.

[4] = test system: skin of hind limb toes of mice; assay: Chemotherapeutic drug-induced mouse models with hand-foot syndrome (Example 23); format: in vivo, ICR mice; conditions: for degree of swelling of hind limb toes / epidermal layer and stratum corneum in skin tissues of hind limb toes (pathological staining): modeling drug oral for 14 days; for skin appearance of hind limb toes: modeling for 14 days, capecitabine 200 mg/kg or docetaxel 25 mg/kg oral
Description: After adaptive feeding for 7 days, SPF-grade ICR mice (male, 5-6 weeks old, with a body weight of approximately 35 g) were randomly divided into groups, including a blank control group (6 mice), a capecitabine modeling group (6 mice), a docetaxel modeling group (6 mice), a capecitabine+compound 2b group (6 mice), a docetaxel+compound 2b group (6 mice), a capecitabine+nicotinamide group (6 mice), and a docetaxel+nicotinamide group (6 mice). The groups were respectively administered corresponding modeling drugs by oral gavage (capecitabine at 200 mg/kg and docetaxel at 25 mg/kg) once daily, and the blank control group was administered an equivalent volume of normal saline. After administration with the chemotherapeutic drugs for 2 weeks, the compound ointments (at a compound content of 3%) used in Example 22 were respectively applied topically in the groups, or nicotinamide was orally administered (100 mg/kg) once daily continuously for 16 days.
Measurement of the degree of swelling of toes: The degree of swelling of hind limb toes of the mice was measured using a toe swelling tester (KW-7C, Nanjing Calvin Biotechnology Co., Ltd.) before administration with the modeling drugs, after administration with the modeling drugs for 2 weeks, and before sacrifice, respectively. Before measurement, ankle joints of hind paws of the mice were marked at same positions before administration, after administration for 2 weeks, and before sacrifice. During measurement, water was properly located at the same level as the marked positions, and numerical values were recorded after becoming stable.
Pathological staining of skin tissues: Skin tissue samples were selected from hind limb toes of the mice and placed in 4% paraformaldehyde for fixation at room temperature for 4 hours. Then, the tissues were taken out and rinsed with running water for several hours. The samples were subjected to dehydration treatment with 70%, 80%, and 90% ethanol solutions, followed by treatment with a mixed solution of equal amounts of absolute alcohol and xylene for 15 minutes, and then permeabilized twice with a xylene solution for 15 minutes each time until the samples became transparent. The samples were placed in a mixture of half xylene and half paraffin for soaking for 15 minutes, and then, paraffin I and paraffin II were added for wax penetration for one hour, respectively. After embedding with paraffin, the samples were sectioned, baked, dewaxed, and hydrated. Then, the hydrated sections were placed in a hematoxylin solution (ZSGB-BIO, article No. 23041001) for staining for 3 minutes, and a differentiation solution of hydrochloric acid in ethanol was added for differentiation for 15 seconds. After rinsing with water, a Scott bluing solution (Servicebio, article No. 20230801) was added for bluing for 15 seconds. After rinsing with running water, the sections were stained with an eosin solution (Solarbio, article No. 33535) for 3 minutes, rinsed with running water, dehydrated, permeabilized, sealed, and inspected under a microscope.
Immunohistochemical staining: After baking, dewaxing, and hydration, paraffin sections of skin tissues of hind limb toes of the mice were subjected to antigen retrieval using a 0.2 M citric acid buffer solution (containing 1.534 g of citric acid, 3.1 g of sodium citrate, and 100 mL of distilled water, pH 4.7). Endogenous […] was removed using 3% hydrogen peroxide (Shandong Annjet High-Tech Disinfection Technology Co., Ltd., article No. 20290902), and the sections were incubated at room temperature for 10 minutes and then fully rinsed with a PBS buffer solution (containing 8 g of NaCl, 0.2 g of KCl, 1.44 g of Na2HPO4, and 1 M HCl, pH 7.4). The sections were permeabilized with 0.5% Triron-X-100 (AmyJet Scientific, article No. A-CSH436-100 mL), respectively permeabilized with mouse anti-IL-1β and rabbit IL-8 for 10 minutes, and not permeabilized with rabbit anti-IL-6. […]

[5] = test system: MMP2 and MMP9 in HaCat keratinocytes; assay: Expression of matrix metalloproteinases in HaCat keratinocytes, RT-PCR and Western blot (Example 17); format: cell-based, human; conditions: 24 hours
Experimental: 1*10^8 HaCat cells were seeded in culture dishes, into which a human recombinant NAP1L2 protein (Abcam, Cat. #ab117213), sorafenib, capecitabine, docetaxel, and osimertinib were added, or NAP1L2 siRNA (sh-NAP1L2, GeneChem) was transfected, respectively. The cells were placed in an incubator containing 5% carbon dioxide for culture at 37° C. for 24 hours, washed with PBS, and then collected by high-speed centrifugation. An RLT lysis buffer was added to the above collected cells, the mixture was shaken at 4° C. for half an hour and centrifuged to collect the supernatant, and the expression of matrix metalloproteins was measured by Western blot.
Total RNA was extracted from the above collected cells using a Trizol reagent (Sigma Aldrich). 1 μg of RNA was reverse-transcribed into cDNA using a cDNA reverse transcription kit (Transgene Biotech, Cat. #AT311-03). 1.25 μL of a primer (SinoBiological, Cat. #HP100168&HP100367), 10 μL of an iTagUniversal SYBR Green supermix (Bio-Rad, Cat. #172-5125), and an appropriate amount of DEPC ultrapure water were added to formulate 20 μL of a reaction solution to perform an RT-PCR reaction. Upon completion of the reaction, the reaction solution was subjected to agarose gel electrophoresis to determine the mRNA expression amounts of the matrix metalloproteins.

Row | Molecule | mRNA expression amount of NAP1L2 [1] | m6A methylation level of HaCat cells, increase compared with blank control group [2] | m6A methylation level of human HaCat keratinocytes [3] | fold induction at 0.05 µM [3] | degree of swelling of hind limb toes [4] | epidermal layer and stratum corneum in skin tissues of hind limb toes (pathological staining) [4] | skin appearance of hind limb toes [4] | also measured
1 | m6A methylase METTL3: recombinant protein of m6A methylase METTL3 (Abcam, Cat. #ab271611) | significantly increased |  |  |  |  |  |  | 
2 | m6A demethylase FTO: recombinant protein of m6A demethylase FTO (Abcam, Cat. #ab271525) | significantly decreased |  |  |  |  |  |  | 
3 | CCCCCOC(=O)Nc1nc(=O)n([C@@H]2O[C@H](C)[C@@H](O)[C@H]2O)cc1F [Capecitabine, capecitabine] |  | 6.01 times | significantly increase | 6.7 | swelling of the hind limb toes of the mice is caused | significantly thickened | obvious erythema, rhagades, and blisters | cytokine IL-8 in skin tissues of hind limb toes (immunohistochemistry) ([4]; capecitabine oral for 14 days): significantly increased
4 | CC(=O)O[C@@]12CO[C@@H]1C[C@H](O)[C@@]1(C)C(=O)[C@H](O)C3=C(C)[C@@H](OC(=O)[C@H](O)[C@@H](NC(=O)OC(C)(C)C)c4ccccc4)C[C@@](O)([C@@H](OC(=O)c4ccccc4)[C@H]21)C3(C)C [Docetaxel, docetaxel] |  | 3.97 times | significantly increase | 5.6 | swelling of the hind limb toes of the mice is caused | significantly thickened | obvious erythema, rhagades, and blisters | cytokine IL-6 in skin tissues of hind limb toes (immunohistochemistry) ([4]; docetaxel oral for 14 days): significantly increased
5 | recombinant NAP1L2 protein: human recombinant NAP1L2 protein (Abcam, Cat. #ab117213) (protein, UniProt Q9ULW6 1-460, looked up) Nucleosome assembly protein …: MAESENRKELSESSQEEAGNQIMVEGLGEHLERGEDAAAGLGDDGKCGEEAAAGLGEEGENGEDTAAGSGEDGKKGGDTDEDSEADRPKGLIGYVLDTDFVESLPVKVKYRVLALKKLQTRAANLESKFLREFHDIERKFAEMYQPLLEKRRQIINAIYEPTEEECEYKSDSEDCDDEEMCHEEMYGNEEGMVHEYVDEDDGYEDYYYDYAVEEEEEEEEEDDIEATGEENKEEEDPKGIPDFWLTVLKNVDTLTPLIKKYDEPILKLLTDIKVKLSDPGEPLSFTLEFHFKPNEYFKNELLTKTYVLKSKLAYYDPHPYRGTAIEYSTGCEIDWNEGKNVTLKTIKKKQKHRIWGTIRTVTEDFPKDSFFNFFSPHGITSNGRDGNDDFLLGHNLRTYIIPRSVLFFSGDALESQQEGVVREVNDAIYDKIIYDNWMAAIEEVKACCKNLEALVEDIDR |  |  |  |  |  |  |  | mRNA and protein expression amounts of matrix metalloproteinases MMP2 and MMP9 [5]: significantly increased
